A short description of data set [1]: Chemical stability of compound at pH 7.4 in PBS buffer at 1 mg incubated for 48 hrs by HPLC analysis. It is filed as physicochemical. The settings on record: pH 7.4, 48 h.
A short description of data set [2]: Metabolic stability in rat liver microsomes assessed as parent compound remaining at 10 mM measured up to 60 mins in presence of NADPH by LC-MS/MS analysis. It is filed as ADME, Microsome. The settings on record: read-out: Stability. Background: Liver microsomes are vesicles of endoplasmic reticulum, rich in cytochrome P450 enzymes.
Data set [3] can be described thus: Toxicity in nude mouse xenografted with human MDA-MB-231 cells assessed as pathological changes in liver at 20 to 40 mg/kg, iv administered every 2 days for 14 days by H and E staining based assay. It is filed as organism-based. As to conditions: in vivo, 336 h, dose 20-40 mg/kg, time 14 day. (In general: A xenograft is tissue or cells of one species grown in another, often human tumour cells in immunodeficient mice.)

A short description of data set [4]: Toxicity in nude mouse xenografted with human MDA-MB-231 cells assessed as pathological changes in spleen at 20 to 40 mg/kg, iv administered every 2 days for 14 days by H and E staining based assay. It is filed as organism-based. As to conditions: in vivo, 336 h, dose 20-40 mg/kg, time 14 day.
A short description of data set [5]: Toxicity in nude mouse assessed as effect on monocytes level at 40 mg/kg, iv administered qd for 3 days (reference value: 37.10 %). The settings on record: in vivo, 72 h, time 3 day. In kind it is organism-based.
The nature of data set [6]: Aqueous solubility of compound in PBS at pH 7.4 at 1 mg incubated for 10 mins by HPLC analysis. It is filed as physicochemical.
Data set [7] is described as follows: Toxicity in nude mouse assessed as effect on platelet count at 40 mg/kg, iv administered qd for 3 days (reference value: 21 10^9/L). In kind it is organism-based. The settings on record: in vivo, 72 h, time 3 day.
In another data set the test system is MDA-MB-231. Description: Antitumor activity against mouse xenografted with human MDA-MB-231 cells assessed as increase in tumor necrosis area at 20 to 40 mg/kg, iv administered every 2 days for 14 days by H and E staining based assay. It is filed as functional, organism-based. The settings on record: dose 20-40 mg/kg, time 14.0 day.
Data set [8] can be described thus: Toxicity in nude mouse assessed as ratio of effect on aspartate aminotransferase level […] level in serum at 40 mg/kg, iv administered qd for 3 days (reference value: 1.38). It is filed as organism-based. The settings on record: in vivo, 72 h, time 3 day.
Data set [9] in a line: Toxicity in nude mouse assessed as effect on albumin level in serum at 40 mg/kg, iv administered qd for 3 days (reference value: 31.2 g/L). It is filed as organism-based. As to conditions: in vivo, 72 h, time 3 day.
The nature of data set [10]: Chemical stability of compound at pH 7.4 in bovine serum at 1 mg incubated for 48 hrs by HPLC analysis. The settings on record: cattle, pH 7.4, 48 h. In kind it is ADME, cell-free.
A short description of data set [11]: Toxicity in nude mouse assessed as effect on total protein level in serum at 40 mg/kg, iv administered qd for 3 days (reference value: 47.3 g/L). In kind it is organism-based. The settings on record: in vivo, 72 h, time 3 day.

Activity calls are given as the source filed them. The calls are words filed in the database; no cut-off is given here.

The record followed here is ChEMBL document CHEMBL5154856, “Targeting the tumor microenvironment by an enzyme-responsive prodrug of tubulin destabilizer for triple-negative breast cancer therapy with high safety” (Eur J Med Chem, 2022).

The term solubility denotes the dissolved amount per volume that the medium holds.

Take `COc1ccc([C@H]2[C@H](CO)C(=O)N2c2cc(OC)c(OC)c(OC)c2)cc1OCc1ccc(O[C@@H]2O[C@H](C(=O)O)[C@@H](O)[C@H](O)[C@H]2O)cc1`: the Stability entry in data set [1] and in data set [10] was “Stable” throughout. Also, the remaining at 1 h in data set [2] was found to be 74.9%. The Activity entry in [3] is reported as “Non-Toxic”; in [4], “Non-Toxic”; in data set [5], 21.9%; in [7] it was 43 10^9/L; in [9] it was 29.5 g/L; in data set [11] it was 45.5 g/L. Also, in data set [6], the solubility at 10 min was > 40 mg/mL. Moreover, in the data set on MDA-MB-231, the outcome was Active. Moreover, in data set [8], the Ratio was found to be 1.59.
